Test results published in US20210284639A1, “TYROSINE AMIDE DERIVATIVES AS RHO- KINASE INHIBITORS” (CHIESI FARMACEUTICI S.p.A., priority 2018, published 2021).

What was measured:
ROCK 1 (Rho kinase 1) = ROCK 1 (Rho kinase 1) (Homo sapiens, UniProt Q13464); assay: In vitro inhibitory activity assay (ADP-Glo), Rho kinase 1; type: biochemical; conditions: Ki by Cheng-Prusoff from IC50; 10 μM ATP, 25° C.
Experimental: (§1) In Vitro Inhibitory Activity Assay Description
(§2) The effectiveness of compounds of the present invention to inhibit Rho kinase activity can be determined in a 10 μl assay containing 40 mM Tris pH7.5, 20 mM MgCl2 0.1 mg/ml BSA, 50 μM DTT and 2.5 μM peptide substrate (Myelin Basic Protein) using an ADP-Glo kit (Promega). Compounds were dissolved in DMSO such that the final concentration of DMSO was 1% in the assay. All reactions/incubations are performed at 25° C. Compound (2 μl) and either Rho kinase 1 or 2 (4 μl) were mixed and incubated for 30 mins. Reactions were initiated by addition of ATP (4 μl) such that the final concentration of ATP in the assay was 10 μM. After a 1 hour incubation 10 μl of ADP-Glo Reagent was added and after a further 45 minute incubation 20 μl of Kinase Detection Buffer was added and the mixture incubated for a further 30 minutes. The luminescent signal was measured on a luminometer. […] Compounds were tested in dose-response format and the inhibition of kinase activity was calculated at each concentration of compound. To determine the IC50 (concentration of compound required to inhibit 50% of the enzyme activity) data were fit to a plot of % inhibition vs Log10 compound concentration using a sigmoidal fit with a variable slope and fixing the maximum to 100% and the minimum to 0%. To determine the Ki values the Cheng-Prusoff equation was utilized (Ki=IC50/(1+[S]/Km).

ROCK 2 (Rho kinase 2) = ROCK 2 (Rho kinase 2) (Homo sapiens, UniProt O75116); assay: In vitro inhibitory activity assay (ADP-Glo), Rho kinase 2; type: biochemical; conditions: Ki by Cheng-Prusoff from IC50; 10 μM ATP, 25° C.
Chain of ROCK 2 (Rho kinase 2) (O75116 whole entry): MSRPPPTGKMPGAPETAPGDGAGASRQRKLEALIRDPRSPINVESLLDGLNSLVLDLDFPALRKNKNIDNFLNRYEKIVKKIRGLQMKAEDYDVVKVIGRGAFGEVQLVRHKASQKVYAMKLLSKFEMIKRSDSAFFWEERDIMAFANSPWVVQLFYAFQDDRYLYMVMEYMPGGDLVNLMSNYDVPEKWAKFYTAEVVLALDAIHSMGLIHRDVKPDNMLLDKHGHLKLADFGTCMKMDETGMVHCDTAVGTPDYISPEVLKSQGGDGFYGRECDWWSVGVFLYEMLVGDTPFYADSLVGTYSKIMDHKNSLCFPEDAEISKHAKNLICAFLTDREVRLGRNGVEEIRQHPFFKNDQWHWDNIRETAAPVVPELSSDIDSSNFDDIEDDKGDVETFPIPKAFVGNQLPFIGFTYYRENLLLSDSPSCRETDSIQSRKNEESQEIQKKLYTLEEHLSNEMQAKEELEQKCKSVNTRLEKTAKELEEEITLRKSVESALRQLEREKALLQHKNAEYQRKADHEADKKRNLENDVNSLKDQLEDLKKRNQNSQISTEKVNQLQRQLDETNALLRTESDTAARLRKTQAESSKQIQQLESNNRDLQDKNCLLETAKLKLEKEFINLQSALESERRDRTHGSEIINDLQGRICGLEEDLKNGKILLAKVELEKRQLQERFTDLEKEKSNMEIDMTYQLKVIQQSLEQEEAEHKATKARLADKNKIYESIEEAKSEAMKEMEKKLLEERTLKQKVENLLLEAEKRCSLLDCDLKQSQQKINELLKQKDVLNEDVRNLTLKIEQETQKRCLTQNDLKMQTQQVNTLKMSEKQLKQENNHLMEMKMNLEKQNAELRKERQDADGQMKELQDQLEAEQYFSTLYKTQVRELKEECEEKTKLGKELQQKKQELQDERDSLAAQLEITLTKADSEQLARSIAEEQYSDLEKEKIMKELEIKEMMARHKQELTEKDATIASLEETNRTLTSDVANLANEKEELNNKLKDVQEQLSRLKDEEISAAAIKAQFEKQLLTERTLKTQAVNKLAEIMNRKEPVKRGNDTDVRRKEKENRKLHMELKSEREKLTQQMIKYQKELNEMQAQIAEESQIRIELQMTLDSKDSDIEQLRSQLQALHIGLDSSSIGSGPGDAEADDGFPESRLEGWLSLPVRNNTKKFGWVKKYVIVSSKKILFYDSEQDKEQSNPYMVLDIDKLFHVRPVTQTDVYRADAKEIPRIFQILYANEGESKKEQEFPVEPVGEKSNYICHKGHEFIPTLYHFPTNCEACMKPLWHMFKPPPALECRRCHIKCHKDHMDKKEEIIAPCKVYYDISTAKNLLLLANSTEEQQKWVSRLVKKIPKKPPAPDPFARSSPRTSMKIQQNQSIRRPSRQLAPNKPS
Experimental: as §1, §2

Chain of ROCK 1 (Rho kinase 1) (Q13464 whole entry): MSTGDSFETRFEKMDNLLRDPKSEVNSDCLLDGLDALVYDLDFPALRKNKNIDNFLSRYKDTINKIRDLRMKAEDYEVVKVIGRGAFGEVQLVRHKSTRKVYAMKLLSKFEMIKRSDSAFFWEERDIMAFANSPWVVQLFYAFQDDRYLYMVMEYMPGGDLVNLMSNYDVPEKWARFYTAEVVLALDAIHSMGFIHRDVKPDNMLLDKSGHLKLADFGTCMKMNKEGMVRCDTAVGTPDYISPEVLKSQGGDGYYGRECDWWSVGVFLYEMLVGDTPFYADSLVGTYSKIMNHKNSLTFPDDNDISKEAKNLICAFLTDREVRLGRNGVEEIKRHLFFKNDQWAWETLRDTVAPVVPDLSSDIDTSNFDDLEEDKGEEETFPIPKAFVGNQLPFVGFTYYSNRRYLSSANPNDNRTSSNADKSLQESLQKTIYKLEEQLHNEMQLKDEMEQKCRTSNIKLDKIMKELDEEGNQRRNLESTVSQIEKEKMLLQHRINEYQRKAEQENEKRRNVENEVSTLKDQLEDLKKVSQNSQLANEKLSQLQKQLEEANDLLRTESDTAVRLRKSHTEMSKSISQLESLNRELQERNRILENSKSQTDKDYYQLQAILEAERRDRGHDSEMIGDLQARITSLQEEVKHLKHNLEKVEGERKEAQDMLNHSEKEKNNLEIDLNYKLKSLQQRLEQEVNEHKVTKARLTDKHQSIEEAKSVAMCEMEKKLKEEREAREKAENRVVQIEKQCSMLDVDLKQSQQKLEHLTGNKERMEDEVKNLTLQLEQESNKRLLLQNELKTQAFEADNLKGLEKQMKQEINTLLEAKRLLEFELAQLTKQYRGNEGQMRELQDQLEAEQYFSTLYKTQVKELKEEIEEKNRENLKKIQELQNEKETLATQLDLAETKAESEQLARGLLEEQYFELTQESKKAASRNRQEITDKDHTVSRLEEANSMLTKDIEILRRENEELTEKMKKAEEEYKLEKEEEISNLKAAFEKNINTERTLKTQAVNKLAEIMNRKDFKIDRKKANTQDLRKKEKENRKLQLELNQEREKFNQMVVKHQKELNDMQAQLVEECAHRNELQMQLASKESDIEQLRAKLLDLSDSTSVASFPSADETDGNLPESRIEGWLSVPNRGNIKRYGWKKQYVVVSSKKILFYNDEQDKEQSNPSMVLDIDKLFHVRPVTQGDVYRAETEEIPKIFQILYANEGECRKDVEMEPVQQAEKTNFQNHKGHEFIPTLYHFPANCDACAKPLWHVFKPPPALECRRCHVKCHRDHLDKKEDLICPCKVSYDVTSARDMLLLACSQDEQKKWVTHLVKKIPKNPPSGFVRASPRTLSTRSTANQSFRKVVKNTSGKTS

| Compound | Ki (ROCK 1 (Rho kinase 1)) | Ki (ROCK 2 (Rho kinase 2)) |
| --- | --- | --- |
| Cc1c[nH]c2nccc(Oc3ccc(C[C@H](N)C(=O)N4CCc5ccncc5C4)cc3F)c12 [Example 22, (S)-2-Amino-1-(3,4-dihydro-2,7-naphthyridin-2(1H)-yl)-3-(3-fluoro-4-((3-methyl-1H-pyrrolo[2,3-b]pyridin-4-yl)oxy)phenyl)propan-1-one] | < 3 nM | < 3 nM |
| Cc1c[nH]c2nccc(Oc3ccc(C[C@H](N)C(=O)N4CCc5cncnc5C4)cc3F)c12 [Example 23, (S)-2-Amino-1-(5,8-dihydropyrido[3,4-d]pyrimidin-7(6H)-yl)-3-(3-fluoro-4-((3-methyl-1H-pyrrolo[2,3-b]pyridin-4-yl)oxy)phenyl)propan-1-one] | < 3 nM | < 3 nM |
| Cc1c[nH]c2nccc(Oc3ccc(C[C@H](N)C(=O)N4CCc5ncsc5C4)cc3F)c12 [Example 24, (S)-2-Amino-1-(6,7-dihydrothiazolo[5,4-c]pyridin-5(4H)-yl)-3-(3-fluoro-4-((3-methyl-1H-pyrrolo[2,3-b]pyridin-4-yl)oxy)phenyl)propan-1-one] | < 3 nM | < 3 nM |
| Cc1c[nH]c2nccc(Oc3ccc(C[C@H](N)C(=O)N4CCc5cnccc5C4)cc3F)c12 [Example 25, (S)-2-Amino-1-(3,4-dihydro-2,6-naphthyridin-2(1H)-yl)-3-(3-fluoro-4-((3-methyl-1H-pyrrolo[2,3-b]pyridin-4-yl)oxy)phenyl)propan-1-one] | < 3 nM | < 3 nM |
| Cc1c[nH]c2nccc(Oc3ccc(C[C@H](N)C(=O)N4CCc5ncccc5C4)cc3F)c12 [Example 26, (S)-2-amino-1-(7,8-dihydro-1,6-naphthyridin-6(5H)-yl)-3-(3-fluoro-4-((3-methyl-1H-pyrrolo[2,3-b]pyridin-4-yl)oxy)phenyl)propan-1-one] | < 3 nM | < 3 nM |
| Cc1c[nH]c2nccc(Oc3ccc(C[C@H](N)C(=O)NC4(C(N)=O)CCC4)cc3F)c12 [Example 27, (S)-1-(2-Amino-3-(3-fluoro-4-((3-methyl-1H-pyrrolo[2,3-b]pyridin-4-yl)oxy)phenyl)propanamido)cyclobutane-1-carboxamide] | < 3 nM | < 3 nM |
| CNC(=O)C1(NC(=O)[C@@H](N)Cc2ccc(Oc3ccnc4[nH]cc(C)c34)c(F)c2)CCCC1 [Example 28, (S)-1-(2-amino-3-(3-fluoro-4-((3-methyl-1H-pyrrolo[2,3-b]pyridin-4-yl)oxy)phenyl)propanamido)-N-methylcyclopentane-1-carboxamide] | < 3 nM | < 3 nM |
| CNC(=O)C1(NC(=O)[C@@H](N)Cc2ccc(Oc3ccnc4[nH]cc(C)c34)c(F)c2)CCCCC1 [Example 29, (S)-1-(2-amino-3-(3-fluoro-4-((3-methyl-1H-pyrrolo[2,3-b]pyridin-4-yl)oxy)phenyl)propanamido)-N-methylcyclohexane-1-carboxamide] | < 3 nM | < 3 nM |
| Cc1c[nH]c2nccc(Oc3ccc(C[C@H](N)C(=O)NC4(CO)CCC4)cc3F)c12 [Example 30, (S)-2-amino-3-(3-fluoro-4-((3-methyl-1H-pyrrolo[2,3-b]pyridin-4-yl)oxy)phenyl)-N-(1-(hydroxymethyl)cyclobutyl)propanamide] | < 3 nM | < 3 nM |
| Cc1cccc(S(=O)(=O)C2CCN(C(=O)[C@@H](N)Cc3ccc(Oc4ccnc5[nH]cc(C)c45)c(F)c3)CC2)c1 [Example 31, (S)-2-Amino-3-(3-fluoro-4-((3-methyl-1H-pyrrolo[2,3-b]pyridin-4-yl)oxy)phenyl)-1-(4-(m-tolylsulfonyl)piperidin-1-yl)propan-1-one] | < 3 nM | < 3 nM |
| Cc1c[nH]c2ncnc(Oc3ccc(C[C@H](N)C(=O)NC4(C(N)=O)CCCCC4)cc3F)c12 [Example 32, (S)-1-(2-amino-3-(3-fluoro-4-((5-methyl-7H-pyrrolo[2,3-d]pyrimidin-4-yl)oxy)phenyl)propanamido)cyclohexanecarboxamide] | 3 to 30 nM | < 3 nM |
